According to patent US20250230138A1, “COMPOUNDS HAVING A T-STRUCTURE FORMED BY AT LEAST FOUR CYCLES FOR USE IN THE TREATMENT OF CANCER AND OTHER INDICATIONS” (TheRas, Inc., priority 2022, published 2025):
pIC50: −log10 of the molar value. Like-named read-outs stand apart in the source and are kept apart here.

Tests used:
[1] = target: Cys242 in human PIK3CA (157-299) (Homo sapiens (Human), UniProt P42336); test: Covalent modification assay using MALDI-TOF MS; type: biochemical; conditions: 4 h reaction time point
In short: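 PIK3CA (157-299), 3.33 or 1 μM in 20 mM HEPES, 150 mM NaCl, 2 mM MgCl2, pH 7.3, was incubated with compound at room temperature in the dark for 15 min, 30 min, 2 h or 4 h. Linear MALDI-TOF read-out; % modification = adduct peak height over summed heights of all protein species.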

pAKT in BT474 cells = test: Cell-based pAKT HTRF assay in BT474 cells; conditions: BT474 cells, 4 hr incubation, read-out: pAKT inhibition IC50 in BT474 cells
In short: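 9-pt curve, top 3 μM, 3-fold steps, 0.25% DMSO; 4 hr compound exposure. Lysis, then HTRF with d2/Eu Cryptate antibody pair, 4–24 h RT. Ex 320 nm, Em 615 nm.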

[2] = 3.33 μM protein target, 1:7.5 protein to compound ratio (compounds 1-852)
[3] = Homo sapiens, BT-474, Compounds 10-999
[4] = 1 μM protein target, 1:5 protein to compound ratio (compounds 853-1279)

Sequence of Cys242 in human PIK3CA (157-299) (P42336 157-299): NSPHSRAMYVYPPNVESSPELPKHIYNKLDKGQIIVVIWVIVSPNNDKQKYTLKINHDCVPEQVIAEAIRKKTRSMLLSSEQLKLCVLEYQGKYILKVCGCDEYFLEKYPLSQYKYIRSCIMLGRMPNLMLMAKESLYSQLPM

## COc1cc(F)ccc1-c1c(-c2cnn(C3CN(C(=O)C(F)Cl)C3)c2)nc(-c2ccc3c(c2)CCNC3)c2ccsc12 (stereo not drawn) [Compound 171]
[1]; [2]
  % of modification: D (percent of modification <25%)
pAKT in BT474 cells; Compounds 10-999
  pIC50: < 5.52

## C=CC(=O)N1CCn2nc(-c3nc(-c4ccc5c(c4)CCN(C(C)C)C5)c4ccsc4c3-c3ccc(F)cc3OCCOC)nc2C1 [Compound 185, 1-[2-[7-[4-fluoro-2-(2-methoxyethoxy)phenyl]-4-(2-isopropyl-3,4-dihydro-1H-isoquinolin-6-yl)thieno[3,2-c]pyridin-6-yl]-6,8-dihydro-5H-[1,2,4]triazolo[1,5-a]pyrazin-7-yl]prop-2-en-1-one]
[1]; [2]
  % of modification: A (percent of modification of PIK3CA protein ≥75%)
pAKT in BT474 cells; [3]
  pIC50: > 7.00

## C=CC(=O)N1Cc2cc(-c3nc(C45CC(CN(C)C)(C4)C5)c4ccsc4c3-c3c(F)cc(F)cc3OCCOC)nn2C[C@H]1C [Compound 1168, 1-((6R)-2-(7-(2,4-difluoro-6-(2-methoxyethoxy)phenyl)-4-(3-((dimethylamino)methyl)bicyclo[1.1.1]pentan-1-yl)thieno[3,2-c]pyridin-6-yl)-6-methyl-6,7-dihydropyrazolo[1,5-a]pyrazin-5(4H)-yl)prop-2-en-1-one]
[1]; [4]
  % of modification: B (50%<percent of modification <75%)
pAKT in BT474 cells; Homo sapiens, BT-474, Compounds 1000-1279
  pIC50: 6.00 to 7.00

## C=CC(=O)N1CCn2nc(-c3nc(-c4cnc5c(c4)CN(C)CC5)c4ccsc4c3-c3ccc(F)cc3OCCOC)cc2C1 [Compound 253]
[1]; [2]
  % of modification: A (percent of modification of PIK3CA protein ≥75%)
pAKT in BT474 cells; Compounds 10-999
  pIC50: > 7.00

## C=CC(=O)N1Cc2cc(-c3nc(-c4ccc5cn(C)nc5c4)c4ccsc4c3-c3c(F)cc(F)cc3OC[C@@H](C)O)nn2C[C@H]1C [Compound 752]
[1]; [2]
  % of modification: A (percent of modification of PIK3CA protein ≥75%)
pAKT in BT474 cells; Compounds 10-999
  pIC50: > 7.00

## C=CC(=O)N1CCn2nc(-c3nc(-c4cnnc(C)c4)c4ccsc4c3-c3c(F)cc(F)cc3OCCOC)cc2C1C (stereo not drawn) [Compound 764]
[1]; [2]
  % of modification: A (percent of modification of PIK3CA protein ≥75%)
pAKT in BT474 cells; Compounds 10-999
  pIC50: > 7.00

## C=CC(=O)N1Cc2cc(-c3nc(-c4ccc5nn(C)cc5c4)c4ccsc4c3-c3c(F)cc(F)cc3OC)nn2[C@@H](C)C1 [Compound 847]
[1]; [2]
  % of modification: A (percent of modification of PIK3CA protein ≥75%)
pAKT in BT474 cells; Compounds 10-999
  pIC50: > 7.00

## C=CC(=O)N1CCn2nc(-c3nc(-c4cnn(C)c4)c4ccsc4c3-c3ccc(F)cc3Cl)cc2C1 [Compound 291]
[1]; [2]
  % of modification: A (percent of modification of PIK3CA protein ≥75%)
pAKT in BT474 cells; Compounds 10-999
  pIC50: > 7.00

## C=CC(=O)N1CCc2nc(-c3nc(-c4cnn(C5CNC5)c4)c4ccsc4c3-c3ccc(F)cc3OCCOC)sc2C1 [Compound 132, 1-[2-[4-[1-(azetidin-3-yl)pyrazol-4-yl]-7-[4-fluoro-2-(2-methoxyethoxy)phenyl]thieno[3,2-c]pyridin-6-yl]-6,7-dihydro-4H-thiazolo[5,4-c]pyridin-5-yl]prop-2-en-1-one]
[1]; [2]
  % of modification: A (percent of modification of PIK3CA protein ≥75%)
pAKT in BT474 cells; [3]
  pIC50: 6.00 to 7.00

## C=C(F)C(=O)N1CCn2nc(-c3nc(-c4ccc5c(c4)CCN(C)C5)c4ccsc4c3-c3c(F)cc(F)cc3OC(C)C)nc2C1 [Compound 314]
[1]; [2]
  % of modification: A (percent of modification of PIK3CA protein ≥75%)
pAKT in BT474 cells; Compounds 10-999
  pIC50: > 7.00

## C=CC(=O)N1CCn2nc(-c3nc(-c4ccc5c(cnn5C)c4)c4ccsc4c3-c3c(F)cc(F)cc3OCCO)cc2C1C (stereo not drawn) [Compound 1156]
[1]; [4]
  % of modification: D (percent of modification <25%)
pAKT in BT474 cells; Compounds 1000-1279
  pIC50: > 7.00

## C=CC(=O)N1CCn2nc(-c3nc(-c4ccnc(N(C)C)c4)c4ccsc4c3-c3c(F)cc(F)cc3OCCOC)cc2[C@@H]1C [Compound 965]
[1]; [4]
  % of modification: A (percent of modification of PIK3CA protein ≥75%)
pAKT in BT474 cells; Compounds 10-999
  pIC50: 6.00 to 7.00

## C=CC(=O)N1CC(n2cc(-c3nc(-c4ccnc(N)c4)c4ccsc4c3-c3ccc(F)cc3OCCOC)ccc2=O)C1 [Compound 177]
[1]; [2]
  % of modification: B (50%<percent of modification <75%)
pAKT in BT474 cells; Compounds 10-999
  pIC50: 6.00 to 7.00

## C=CC(=O)N1CCn2nc(-c3nc(-c4ccn5ncnc5c4)c4ccsc4c3-c3c(F)cc(F)cc3OCCOC)cc2C1C (stereo not drawn) [Compound 985]
[1]; [4]
  % of modification: A (percent of modification of PIK3CA protein ≥75%)
pAKT in BT474 cells; Compounds 10-999
  pIC50: > 7.00

## C=CC(=O)N1CC[C@@H](n2cc(-c3nc(-c4cnn(CC(F)F)c4)c4ccsc4c3-c3c(F)cc(F)cc3OC(C)C)cn2)C1 [Compound 387]
[1]; [2]
  % of modification: A (percent of modification of PIK3CA protein ≥75%)
pAKT in BT474 cells; Compounds 10-999
  pIC50: 6.00 to 7.00

## C=CC(=O)N1CCC(n2cc(-c3nc(-c4ccc5c(c4)CS(=N)(=O)C5)c4ccsc4c3-c3ccc(F)cc3OCCOC)cn2)CC1 (stereo not drawn) [Compound 94]
[1]; [2]
  % of modification: A (percent of modification of PIK3CA protein ≥75%)
pAKT in BT474 cells; Compounds 10-999
  pIC50: > 7.00

## C=CC(=O)N1CC[C@H](n2cc(-c3nc(-c4ccc5c(c4)CCNC5)c4ccsc4c3-c3ccc(F)cc3OCCOC)ccc2=O)C1 [Compound 173]
[1]; [2]
  % of modification: A (percent of modification of PIK3CA protein ≥75%)
pAKT in BT474 cells; Compounds 10-999
  pIC50: 6.00 to 7.00

## C=CC(=O)N1CCn2nc(-c3nc(-c4ccc(C(=O)NC5CN(C)C5)cc4)c4ccsc4c3-c3c(F)cc(F)cc3OCCOC)cc2C1C (stereo not drawn) [Compound 1095]
[1]; [4]
  % of modification: A (percent of modification of PIK3CA protein ≥75%)
pAKT in BT474 cells; Compounds 1000-1279
  pIC50: > 7.00

## C=CC(=O)N1Cc2cc(-c3nc(-c4ccc5c(c4)CNC5=O)c4ccsc4c3-c3c(F)cc(F)cc3OCCO)nn2CC1C (stereo not drawn) [Compound 904]
[1]; [4]
  % of modification: A (percent of modification of PIK3CA protein ≥75%)
pAKT in BT474 cells; Compounds 10-999
  pIC50: > 7.00

## C=CC(=O)N1Cc2cc(-c3nc(-c4ccc5c(c4)CS(=O)(=O)C5)c4ccsc4c3-c3c(F)cc(F)cc3OCCOC)nn2C[C@H]1C [Compound 746]
[1]; [2]
  % of modification: A (percent of modification of PIK3CA protein ≥75%)
pAKT in BT474 cells; Compounds 10-999
  pIC50: > 7.00

## C=CC(=O)N1CCn2nc(-c3nc(-c4ccc5c(c4)CNC(=O)C54CC4)c4ccsc4c3-c3c(F)cc(F)cc3OCCOC)cc2C1C (stereo not drawn) [Compound 1083]
[1]; [4]
  % of modification: A (percent of modification of PIK3CA protein ≥75%)
pAKT in BT474 cells; Compounds 1000-1279
  pIC50: > 7.00

## C=CC(=O)N1CCc2ncc(-c3nc(-c4ccc5c(c4)CCNC5)c4c(c3-c3ccc(F)cc3OCCOC)CCC4)cc2C1 [Compound 88]
[1]; [2]
  % of modification: A (percent of modification of PIK3CA protein ≥75%)
pAKT in BT474 cells; Compounds 10-999
  pIC50: > 7.00

## C=CC(=O)N1Cc2cc(-c3nc(-c4ccc5c(c4)CCS5(=O)=O)c4ccsc4c3-c3c(F)cc(F)cc3OCCOC)nn2C[C@H]1C [Compound 794]
[1]; [2]
  % of modification: A (percent of modification of PIK3CA protein ≥75%)
pAKT in BT474 cells; Compounds 10-999
  pIC50: < 5.52

## C=CC(=O)N1CCc2nc(-c3nc(-c4ccc5c(c4)CCN(CC(F)F)CC5)c4ccsc4c3-c3c(F)cc(F)cc3OCCOC)sc2C1 [Compound 1270]
[1]; [4]
  % of modification: A (percent of modification of PIK3CA protein ≥75%)
pAKT in BT474 cells; Compounds 1000-1279
  pIC50: 6.00 to 7.00

## C=CC(=O)N1CCc2nc(-c3nc(-c4ccc5c(c4)C(O)CC5)c4ccsc4c3-c3ccc(F)cc3OCCOC)sc2C1 (stereo not drawn) [Compound 152]
[1]; [2]
  % of modification: A (percent of modification of PIK3CA protein ≥75%)
pAKT in BT474 cells; Compounds 10-999
  pIC50: > 7.00

## C=CC(=O)N1CCc2nc(-c3nc(-c4ccc5c(c4)CS(=N)(=O)C5)c4ccsc4c3-c3ccc(F)cc3OCCOC)sc2C1 (stereo not drawn) [Compound 151, 1-[2-[7-[4-fluoro-2-(2-methoxyethoxy)phenyl]-4-(2-imino-2-oxo-1,3-dihydro-2-benzothiophen-5-yl)thieno[3,2-c]pyridin-6-yl]-6,7-dihydro-4H-thiazolo[5,4-c]pyridin-5-yl]prop-2-en-1-one]
[1]; [2]
  % of modification: A (percent of modification of PIK3CA protein ≥75%)
pAKT in BT474 cells; [3]
  pIC50: > 7.00

## C=C(F)C(=O)N1CCn2nc(-c3nc(-c4ccc5c(c4)[C@@H](O)CC5)c4ccsc4c3-c3ccc(F)cc3OC(C)C)cc2C1 [Compound 308]
[1]; [2]
  % of modification: A (percent of modification of PIK3CA protein ≥75%)
pAKT in BT474 cells; Compounds 10-999
  pIC50: 6.00 to 7.00

## C=CC(=O)N1CCn2nc(-c3nc(N4CCC5(CC4)COC5)c4ccsc4c3-c3ccc(F)cc3OCCOC)cc2C1 [Compound 198, 1-[2-[7-[4-fluoro-2-(2-methoxyethoxy)phenyl]-4-(2-oxa-7-azaspiro[3.5]nonan-7-yl)thieno[3,2-c]pyridin-6-yl]-6,7-dihydro-4H-pyrazolo[1,5-a]pyrazin-5-yl]prop-2-en-1-one]
[1]; [2]
  % of modification: A (percent of modification of PIK3CA protein ≥75%)
pAKT in BT474 cells; [3]
  pIC50: > 7.00

## C=CC(=O)N1CCn2nc(-c3nc(C4CCN(C(C)C)CC4)c4ccsc4c3-c3ccc(F)cc3OC(C)C)cc2C1 [Compound 240]
[1]; [2]
  % of modification: A (percent of modification of PIK3CA protein ≥75%)
pAKT in BT474 cells; Compounds 10-999
  pIC50: > 7.00

## C=CC(=O)N1Cc2cc(-c3nc(-c4ccc5c(c4)CCN(C)C5)c4ccsc4c3-c3c(F)cc(F)cc3OC[C@@H](C)O)nn2[C@@H](C)C1 [Compound 590]
[1]; [2]
  % of modification: A (percent of modification of PIK3CA protein ≥75%)
pAKT in BT474 cells; Compounds 10-999
  pIC50: > 7.00

## C=CC(=O)N1CCc2ncc(-c3nc(-c4ccc5c(c4)C(O)CC5)c4ccsc4c3-c3c(F)cc(F)cc3OC(C)C)cc2C1 (stereo not drawn) [Compound 384]
[1]; [2]
  % of modification: A (percent of modification of PIK3CA protein ≥75%)
pAKT in BT474 cells; Compounds 10-999
  pIC50: > 7.00

## C=CC(=O)N1CC[C@H](n2ccc(-c3nc(-c4cnn(C)c4)c4ccsc4c3-c3ccc(F)cc3OC(C)C)n2)C1 [Compound 318]
[1]; [2]
  % of modification: A (percent of modification of PIK3CA protein ≥75%)
pAKT in BT474 cells; Compounds 10-999
  pIC50: > 7.00

## C=CC(=O)N1Cc2cc(-c3nc(-c4cnnc(C)c4)c4ccsc4c3-c3c(F)cc(F)cc3OCC(C)(C)O)nn2[C@@H](C)C1 [Compound 882]
[1]; [4]
  % of modification: A (percent of modification of PIK3CA protein ≥75%)
pAKT in BT474 cells; Compounds 10-999
  pIC50: > 7.00
